From US7008949B2, “Heterocyclic compounds which inhibit leukocyte adhesion mediated by α4 integrins” (Elan Pharmaceuticals, Inc., priority 2003, dated 2006)

Key:
[1] = Cassette dosing and serum analysis for determination of oral bioavailability; type: in vivo, rat; conditions: male SD rats, oral cassette of 6 compounds, total dose 10 mg/kg, plasma at 4, 8, 12 h
Description: The oral bioavailability was screened by dosing rats with a cassette, i.e. mixture of 6 compounds per dosing solution. The cassette included 5 test articles and a standard compound, for a total dose of 10 mg/kg. Each compound/test article was converted to the sodium salt with equimolar 1 N NaOH and dissolved in water at 2 mg/mL. The cassette was prepared by mixing equal volumes of each of the six solutions. The cassette dosing solution was mixed well and then the pH was adjusted to 7.5–9. The dosing solution was prepared the day before the study and stirred overnight at room temperature.
Male Sprague Dawley (SD) rats from Charles River Laboratories, 6–8 weeks old were used in this screen. Rats were quarantined for at least one day and had continuous access to food and water. On the night before the administration of the cassette, the rats were fasted for approximately 16 h.
Four SD rats were assigned in each cassette. A single dose of the dosing solution was administered orally to each rat. The dosing volume (5 mL/kg) and time were recorded and rats were fed 2 h after dosing.
Blood samples were collected via cardiac puncture at the following time points: 4 h, 8 h and 12 h. Immediately prior to blood collection, rats were anesthetized with CO2 gas within 10–20 seconds. After the 12-hour samples were collected, the rats were euthanized via CO2 asphyxiation followed by cervical dislocation.
Blood samples were kept in heparinized microtainer tubes under sub-ambient temperature (4° C.) before they were processed. Blood samples were centrifuged (10000 rpm for 5 minutes) and plasma samples were removed and stored in a −20° C. freezer until analyzed for drug levels. Drug levels in the plasma were analyzed using the following protocol for direct plasma precipitation.
The in vivo plasma samples were prepared in a 1.5 mL 96-well plate, by adding, in order, 100 μL of the test plasma, 150 μL of methanol, followed by vortexing for 10–20 seconds. 150 μL of 0.05 ng/μL of an Internal Standard in acetonitrile were added and vortexed for 30 seconds.
The standard curve samples were prepared in a 1.5 mL 96-well plate, by adding, in order, 100 μL of control mouse plasma, followed by 150 μL of methanol and vortexing for 10–20 seconds. 150 μL of 0.05 ng/μL of an Internal Standard in acetonitrile were added and vortexed for 30 seconds. The samples were spiked with 0–200 ng (10 concentrations) of the compound of interest in 50% methanol to obtain a standard curve range of 0.5 ng/mL–2,000 ng/mL. Again, the sample was vortexed for 30 seconds.
The samples were then spun for 20–30 minutes at 3000 rpm in an Eppendorf microfuge before 80–90% of supernatant was transferred into a clean 96-well plate. The organic solvent was then evaporated until the samples were dry (under N2 at 40° C./30–60 min (ZymarkTurbovap)).
The residue was then dissolved in […] mobile phase (50% CH3OH/0.1% TFA). LC/MS/MS was then run using a PE-Sciex API-3000 triple quadurpole mass spectrometer (SN0749707), Perkin-Elmer, Series200auto-sampler, and shimadzu 10A pump. Acquisition was done with PE-Sciex Analyst (v1.1) and data analysis and quantification were accomplished using PE-Sciex Analyst (v1.1). A 5–50 μL sample volume was injected onto a reverse phase ThermoHypersil DASH-18 column (Keystone 2.0×20 mm, 5 μm, PN: 8823025-701) using a mobile phase of 25% CH3OH, 0.1% TFA-100% CH3OH, 0.1% TFA. The run time was about 8 minutes at a flow rate of about 300 μL/minutes.
The Area Under the Curve (AUC) was calculated using the linear trapezoidal rule from t=0 to the last sampling time tx (see Handbook of Basic Pharmacokinetics, Wolfgang A. Ritschel and Gregory L. Kearns, 5th ed, 1999). AUC^0→tx═S((Cn+Cn+1)/2))·(tn+1−tn)[(μg/mL)h]
In the case of the cassette dosing paradigm, samples at 4, 8 and 12 h post extravascular dosing, the AUC was calculated from t=0 to t=12 h.

α4β1 Integrin = biological target: T1, α4β1 Integrin (Homo sapiens, UniProt P05556+P13612); assay: α4β1 Integrin Adhesion Assay: Jurkat cell adhesion to human plasma fibronectin; type: cell-based; conditions: Jurkat cells
T1 construct: endogenous in cells; host or cells: Jurkat cells
Description: 96 well plates (Costar 3590 EIA plates) were coated with human fibronectin (Gibco/BRL, cat #33016-023) at a concentration of 10 μg/mL overnight at 4° C. The plates were then blocked with a solution of bovine serum albumin (BSA; 0.3%) in saline. Jurkat™ cells (maintained in log phase growth) were labeled with Calcein AM according to the manufacturer's instructions, and suspended at a concentration of 2×10^6 cells/mL in Hepes/Saline/BSA. The cells were then exposed to test and control compounds for 30 minutes at room temperature before transfer to individual wells of the fibronectin coated plate. Adhesion was allowed to occur for 35 minutes at 37° C. The wells were then washed by gentle aspiration and pipetting with fresh saline. Fluorescence associated with the remaining adherent cells was quantified using a fluorescence plate reader at EX 485/EM 530.
Cell cultures were prepared by first splitting the stationary phase Jurkat™ cells at 1:10 on day one, and 1:2 on day two to perform assay on day 3. The cells split 1:10 on day one were split 1:4 on day 3 for a day 4 assay.
The assay plates were prepared by first making a working solution of Gibco/BRL Human Fibronectin (cat # 33016-023) in PBS++, at 10 μg/mL.
A Costar 3590 EIA plate was then coated with 50 μL/well for 2 hours at room temperature (thought it can also be left overnight at 4° C.). Finally the plate was asperated and blocked with Hepes/Saline Buffer, 100 μL/well, for 1 hour at RT followed by washing three times with 150 μL of PBS++.
Compound dilutions were accomplished by preparing 1:3 serial dilutions of compounds as follows. For each plate (4 compounds/plate) 600 μL were added to 4 Bio-Rad Titertubes in a Titertube rack. Enough compound was added to each appropriate tube to give a 2× concentration using methods well known in the art. Using Falcon Flexiplates, 100 μL of Hepes/Saline buffer or human serum were added to rows B through G. A multi-channel pipetter set to 180 μL was used to with four tips spaced evenly the pipetter. Each set of four tubes was mixed 5 times and 180 μL of 2× compound was transferred to the first column of each compound dilution in Row B, leaving Row A empty. 180 μL were added to the other wells in Row A. Serial dilutions were performed down the plate by transferring 50 μL to the next dilution and mixing 5 times, changing tips each time after mixing. Dilutions were stopped at Row F. Row G had no compound present.
A 20 μg/mL solution in Hepes/Saline buffer or human serum, of 21/6 antibody was the positive control and was set aside in a reagent trough to add to cell suspension plate.
The cell staining was accomplished by first harvesting the log-phase Jurkat™ cells by centrifugation in 50 mL tubes (1100 rpm for 5 minutes). The cells were resuspended in 50 mL PBS++, spun, and resuspend in 20 mL PBS++. The cells were stained by adding 20 μL of Calcein AM for 30 minutes R.T. The volume was brought to 50 mL with Hepes/Saline buffer and the cells were counted, spun, and resuspend to 2×10^6 cells/mL in Hepes/Saline buffer or human serum.
The compounds were incubated using the following procedure. In a new flexiplate, 65 μL of stained cells were added to Rows B through H. Then 65 μL of 2× compounds were added to the appropriate rows following the plate setup and mixed 3×. 65 μL of 2×-21/6 antibody were added to Row H and mixed 3×. Finally the plate was incubated at room temperature for 30 minutes.
Fibronectin adhesion was measured using a fluorescent plate reader at EX 485/EM 530 after the following work up procedure. After incubation, the cells were mixed 3× and 100 μL were transferred to the Fibronectin coated plates and incubated at 37° C. for about 35 minutes. Each plate was washed, row by row, by gently pipetting 100 μL of R.T. PBS++ down the sides of the wells and turning the plate 90 degrees to aspirate. This procedure was repeated for a total of 3 washes. Each well was filled with 100 μL after washing by pipetting down the side of the well. […]

[2] = IC50, Cell Adhesion to Human Plasma Fibronectin (With Human Serum), with human serum
[3] = IC50, Cell Adhesion to Human Plasma Fibronectin (Without the Human Serum), without human serum

T1 sequence (P13612 34-1032): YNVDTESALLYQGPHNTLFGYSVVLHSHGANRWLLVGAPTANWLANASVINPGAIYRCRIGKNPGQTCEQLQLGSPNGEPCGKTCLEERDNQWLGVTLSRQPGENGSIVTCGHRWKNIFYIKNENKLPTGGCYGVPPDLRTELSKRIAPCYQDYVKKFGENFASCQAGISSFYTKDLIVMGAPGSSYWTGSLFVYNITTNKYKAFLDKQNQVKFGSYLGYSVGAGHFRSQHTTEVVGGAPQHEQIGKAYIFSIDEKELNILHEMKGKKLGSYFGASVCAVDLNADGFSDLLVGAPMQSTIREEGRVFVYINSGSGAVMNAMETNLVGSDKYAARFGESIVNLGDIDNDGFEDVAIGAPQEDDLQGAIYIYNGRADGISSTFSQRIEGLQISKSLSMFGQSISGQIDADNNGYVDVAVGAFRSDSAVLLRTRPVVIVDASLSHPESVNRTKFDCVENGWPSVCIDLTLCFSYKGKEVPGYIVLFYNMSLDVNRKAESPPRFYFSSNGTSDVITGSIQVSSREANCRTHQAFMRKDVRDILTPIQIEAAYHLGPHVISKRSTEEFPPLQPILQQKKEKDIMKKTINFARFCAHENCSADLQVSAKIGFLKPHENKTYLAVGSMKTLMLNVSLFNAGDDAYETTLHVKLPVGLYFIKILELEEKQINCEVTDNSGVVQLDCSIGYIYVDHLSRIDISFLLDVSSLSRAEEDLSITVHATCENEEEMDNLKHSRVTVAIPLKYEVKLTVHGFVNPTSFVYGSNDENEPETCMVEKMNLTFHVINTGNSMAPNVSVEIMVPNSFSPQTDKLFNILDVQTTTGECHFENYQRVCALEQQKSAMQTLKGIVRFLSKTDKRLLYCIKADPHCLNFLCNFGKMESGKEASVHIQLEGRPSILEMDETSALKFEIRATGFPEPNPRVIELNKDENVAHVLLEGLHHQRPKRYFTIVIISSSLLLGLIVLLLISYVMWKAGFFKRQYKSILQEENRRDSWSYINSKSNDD
T1 sequence (P05556 21-798): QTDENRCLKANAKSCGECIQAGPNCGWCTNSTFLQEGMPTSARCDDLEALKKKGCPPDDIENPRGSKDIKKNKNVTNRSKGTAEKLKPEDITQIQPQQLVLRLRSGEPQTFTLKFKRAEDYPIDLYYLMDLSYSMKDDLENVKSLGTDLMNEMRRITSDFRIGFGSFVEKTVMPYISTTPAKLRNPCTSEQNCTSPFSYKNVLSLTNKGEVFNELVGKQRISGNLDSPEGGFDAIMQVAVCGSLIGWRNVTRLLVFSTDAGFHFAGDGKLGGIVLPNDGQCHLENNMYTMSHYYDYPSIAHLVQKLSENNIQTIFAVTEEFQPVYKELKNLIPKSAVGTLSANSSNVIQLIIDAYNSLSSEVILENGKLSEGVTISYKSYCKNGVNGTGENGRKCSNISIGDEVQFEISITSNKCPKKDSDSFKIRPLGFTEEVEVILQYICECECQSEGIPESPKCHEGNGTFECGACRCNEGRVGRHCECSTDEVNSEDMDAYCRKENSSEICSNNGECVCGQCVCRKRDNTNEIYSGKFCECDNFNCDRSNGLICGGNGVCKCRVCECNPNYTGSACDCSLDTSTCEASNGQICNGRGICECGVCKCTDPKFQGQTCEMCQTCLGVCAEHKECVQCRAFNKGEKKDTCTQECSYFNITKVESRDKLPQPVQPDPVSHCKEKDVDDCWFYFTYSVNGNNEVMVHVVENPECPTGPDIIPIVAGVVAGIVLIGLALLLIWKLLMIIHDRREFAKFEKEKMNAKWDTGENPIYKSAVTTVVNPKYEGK

| SMILES | AUC (average AUC 0→12 h) [1] | IC50 (α4β1 Integrin; [2]) | IC50 (α4β1 Integrin; [3]) |
| --- | --- | --- | --- |
| C#CCN(c1cnc(N(CC)CC)nc1N[C@@H](Cc1ccc(OC(=O)N(C)C)cc1)C(=O)O)S(=O)(=O)c1ccc(F)cc1 [Example 27] | 1.6258 (μg/mL)h | 106 nM | 1.63 nM |
| C#CCN(c1cnc(N(CC)CC)nc1NC(Cc1ccc(OC(=O)N(C)C)cc1)C(=O)O)S(=O)(=O)c1ccc(F)cc1F (stereo not drawn) [Example 28, 2-{2-Diethylamino-5-[(2,4-difluorobenzenesulfonyl)propargylamino]pyrimidin-4-ylamino}-3-(4-dimethylcarbamoyloxyphenyl)propionic acid] | 0.7968 (μg/mL)h | 72.9 nM | 6.34 nM |
| CCN(CC)c1ncc(N(CC(F)(F)F)S(=O)(=O)c2ccc(F)cc2)c(NC(Cc2ccc(OC(=O)N(C)C)cc2)C(=O)O)n1 (stereo not drawn) [Example 29, 2-{2-diethylamino-5-[(4-fluorobenzenesulfonyl)-(2,2,2-trifluoroethyl)amino]pyrimidin-4-ylamino}-3-(4-dimethylcarbamoyloxyphenyl)propionic acid] | 0.2941 (μg/mL)h | 53 nM | 3.35 nM |
